Assay results: patent US8323956B2, “Distal tip of biosensor transducer comprising enzyme for deamination” (Colorado State University Research Foundation, priority 2001, dated 2012)

What was measured:
melamine deaminase TriA = target: T1, melamine deaminase TriA (Paracidovorax citrulli, UniProt Q9EYU0); assay: TriA (melamine deaminase) biosensor response, cells in calcium alginate on pH-sensitive optical fiber; format: cell-based, Escherchia coli DH5α pJS3
T1 construct: expressed in transfected cells; host or cells: Escherichia coli DH5α pJS3
Source text: Cells of Escherchia coli DH5α pJS3 (Seffernick et al., J. Bact. 183 (8), 2405-2410, 2001) were immobilized in calcium alginate on the tip of an optical fiber coated with a PVA-fluoresceinamine conjugate, a pH-sensitive fluorophore. The plasmid pJS3 contains the gene triA, and thus the E. coli cells can express the melamine deaminase TriA, which catalyzes the cleavage of one of the amine groups. The products of this reaction are ammeline (2-hydroxy-4,6-diamino-s-triazine) and ammonia.
The release of ammonia led to an increase in pH on the tip of the optical fiber, which was detected as an increase in the fluorescence of fluoresceinamine (FIG. 21).
The melamine deaminase biosensor was also responsive to the related amine-containing chemical 2-chloro-4,6-diamino-s-triazine (CAAT) (Table 12 and FIG. 22).

[1] = target: T2, LinB haloalkane dehalogenase (Sphingobium indicum, UniProt D4Z2G1); assay: LinB biosensor sensitivity for halogenated hydrocarbons
T2 sequence (D4Z2G1 1-296): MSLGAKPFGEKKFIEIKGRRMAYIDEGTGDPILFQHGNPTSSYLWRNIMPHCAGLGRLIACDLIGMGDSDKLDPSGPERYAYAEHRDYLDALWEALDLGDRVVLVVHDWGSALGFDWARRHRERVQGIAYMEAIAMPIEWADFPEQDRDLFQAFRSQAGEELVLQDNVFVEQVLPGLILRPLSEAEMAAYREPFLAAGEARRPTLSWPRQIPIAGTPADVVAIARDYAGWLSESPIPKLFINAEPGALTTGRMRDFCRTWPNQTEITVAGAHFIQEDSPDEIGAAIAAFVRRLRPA
Source text: The haloalkane dehalogenase LinB was used to develop biosensors for several halogenated hydrocarbons.

E. coli pAQN (linB) = target: T3, E. coli pAQN (linB) (Sphingobium indicum, UniProt D4Z2G1); assay: Biosensor response to 1,2-dibromoethane measured repeatedly over 50 days; format: cell-based; conditions: 5 ppb of 1,2-dibromoethane, in more than 50 days
T3 construct: expressed in transfected cells; host or cells: E. coli carrying plasmid pAQN
Method: FIG. 17 depicts a biosensor response to 5 μg/L 1,2-dibromoethane using E. coli pAQN (linB) as the biocomponent, measured repeatedly over 50 days, according to an embodiment.
The release of a proton from the dehalogenation reaction is detected as a pH change at the end of the optical fiber, and thus as a change in fluorescence intensity (FIG. 14). Fiber optic biosensors for 1,2-dichloroethane (DCA), ethylene dibromide (EDB), atrazine, 1-chlorohexane and Lindane (γ-hexachlorocyclohexane) have been developed (Campbell, 1998; Das, N., Development and Characterization of a Biosensor for Atrazine in Groundwater, Chemical Engineering. 2000, Colorado State University: Fort Collins). These biosensors have linear response ranges over several orders of magnitude in concentration, and detection in the ppt (ng/L) range has been achieved (FIG. 15). […] This fact, and the stability of the enzymes, allows the biosensors to retain activity for many weeks. In one test (FIG. 16), the biosensor response to 5 ppb of 1,2-dibromoethane declined by only 20% in more than 50 days. Sensitive measurement is still possible even at the end of the test; only a recalibration is required.

[2] = target: T2, LinB haloalkane dehalogenase; conditions: reported by Damborsky et al. 2001; cited from earlier work

T1 sequence (Q9EYU0 whole entry): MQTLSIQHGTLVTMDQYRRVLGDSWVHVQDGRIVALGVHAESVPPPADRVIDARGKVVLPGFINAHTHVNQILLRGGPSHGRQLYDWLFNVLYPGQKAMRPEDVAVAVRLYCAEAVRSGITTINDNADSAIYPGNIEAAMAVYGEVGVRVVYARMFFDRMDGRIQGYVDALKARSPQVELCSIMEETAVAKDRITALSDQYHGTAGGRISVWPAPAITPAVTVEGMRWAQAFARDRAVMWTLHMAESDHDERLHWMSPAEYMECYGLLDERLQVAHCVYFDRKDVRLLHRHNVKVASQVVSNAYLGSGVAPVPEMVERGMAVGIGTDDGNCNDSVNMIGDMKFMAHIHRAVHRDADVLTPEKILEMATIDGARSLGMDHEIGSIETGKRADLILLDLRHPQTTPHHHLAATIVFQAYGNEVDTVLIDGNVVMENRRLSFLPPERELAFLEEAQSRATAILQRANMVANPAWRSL

SMILES: Nc1nc(N)nc(N)n1 [Melamine, 2,4,6-triamino-1,3,5-triazine]
- Response (count) (melamine deaminase TriA; 0.12 mg/L): 1000 count
- Response time (melamine deaminase TriA; 0.12 mg/L): 20 h
- Response (count) (melamine deaminase TriA; 1.21 mg/L): 2700 count
- Response time (melamine deaminase TriA; 1.21 mg/L): 16 h

SMILES: Nc1nc(N)nc(Cl)n1 [CAAT, 2-chloro-4,6-diamino-s-triazine]
- Response (count) (melamine deaminase TriA; 0.12 mg/L): 150 count
- Response time (melamine deaminase TriA; 0.12 mg/L): 2 h
- Response (count) (melamine deaminase TriA; 1.21 mg/L): 800 count
- Response time (melamine deaminase TriA; 1.21 mg/L): 10 h

SMILES: BrCCBr [1,2-dibromoethane]
- Biosensor sensitivity (ΔV/ppb analyte) [1]: 0.29 ΔV/ppb analyte
- decline of biosensor response (E. coli pAQN (linB)): 20%
- LinB activity (% of 1-chlorobenzene rate) [2]: 355%

SMILES: CCCCCCCl [1-chlorohexane]
- Biosensor sensitivity (ΔV/ppb analyte) [1]: 0.21 ΔV/ppb analyte
- LinB activity (% of 1-chlorobenzene rate) [2]: 145%
